The values that follow come from patent publication US8501755B2, “Tetrahydropyridothienopyrimidine compounds and methods of use thereof” (Bayer Intellectual Property GmbH, priority 2006, dated 2013).

The structures appear in SMILES notation. pIC50: −log10 of the molar value.

What all share (assay type): cell-based
For one test, the system named is N87. Nature of the test: In vitro tumor cell proliferation assay (Cell Titer-Glo) in N87 cells. Conditions: N87 human gastric carcinoma overexpressing HER2 and HER1; 72 hours exposure; read-out: IC50, activities in N87 cell lines. Summed up: (§1)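 Viability after 72 h drug exposure at 37 °C was read as CellTiter-Glo ATP luminescence, giving IC50. Cells (2.5×10^3/well, RPMI + 10% FBS) were compound-treated one day post-seeding, 0.1% DMSO final: A431 overexpresses HER1, N87 overexpresses HER2 and HER1.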

The subject of another test is A431 cells. The test is described as follows: In vitro tumor cell proliferation assay (Cell Titer-Glo) in A431 cells. The note with it: Homo sapiens, A-431, 72 h, A431 human epidermoid carcinoma overexpressing HER1; 72 hours exposure; read-out: IC50, activities in A431 cell lines. In a few lines:
as §1

A further test concerns H1975 cells. Nature of the test: In vitro tumor cell proliferation assay (Cell Titer-Glo) in H1975 cells. The note with it: NCI-H1975; H1975 human NSCLC expressing mutant HER1 (L858R,T790M); 72 hours exposure; read-out: IC50, activities in H 1975 cell lines. Summed up:
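After 72 h compound exposure at 37° C (top 10 uM down to 64 pM, 0.1% DMSO), viability of EGFR L858R/T790M-mutant H1975 cells was read as ATP luminescence.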

Turning to `O=C(/C=C/CN1CCCCC1)N1CCc2c(sc3ncnc(Nc4ccc(OCc5cccnc5)c(Cl)c4)c23)C1` [Example 88, N-[3-chloro-4-(pyridin-3-ylmethoxy)phenyl]-7-[(2E)-4-piperidin-1-ylbut-2-enoyl]-5,6,7,8-tetrahydropyrido [4′3′:4,5]thieno[2,3-d]pyrimidin-4-amine], the pIC50 is > 6.70 in the test with N87, 5.00 to 6.00 in the test with A431 cells and 6.00 to 6.70 in the test on H1975 cells.

`O=C(/C=C/CN1CCOCC1)N1CCc2c(sc3ncnc(Nc4ccc(OCc5cccnc5)c(Cl)c4)c23)C1` [Example 89, N-[3-chloro-4-(pyridin-3-ylmethoxy)phenyI]-7-[(2E)-4-morpholin-4-ylbut-2-enoyl]-5,6,7,8-tetrahydropyrido [4′,3′:4,5]thieno[2,3-d]pyrimidin-4-amine]: the figures for the pIC50 with N87, in the test with A431 cells and in the test with H1975 cells were > 6.70, 5.00 to 6.00 and 6.00 to 6.70, respectively.

Regarding `CCN(C)C/C=C/C(=O)N1CCc2c(sc3ncnc(Nc4ccc(OCc5cccnc5)c(Cl)c4)c23)C1` [Example 90, N-[3-chloro-4-(pyridin-3-ylmethoxy)phenyl]-7-{(2E)-4-[ethyl(methyl)amino]but-2-enoyl}-5,6,7,8-tetrahydropyrido [4′,3′:4,5]thieno[2,3-d]pyrimidin-4-amine], the pIC50 in the test on N87 was > 6.70; with A431 cells it was 5.00 to 6.00; in the test on H1975 cells, 6.00 to 6.70.

Regarding `CC(C)N(C)C/C=C/C(=O)N1CCc2c(sc3ncnc(Nc4ccc(OCc5cccnc5)c(Cl)c4)c23)C1` [Example 91, N-[3-chloro-4-(pyridin-3-ylmethoxy)phenyl]-7-{(2E)-4-[isopropyl(methyl)amino]but-2-enoyl}-5,6,7,8-tetrahydropyrido [4′,3′:4,5]thieno[2,3-d]pyrimidin-4-amine], the figures for the pIC50 with N87, with A431 cells and in the test on H1975 cells were > 6.70, 5.00 to 6.00 and 6.00 to 6.70, respectively.

As to `CN(C)C/C=C/C(=O)N1CCc2c(sc3ncnc(Nc4ccc5c(cnn5Cc5cccc(F)c5)c4)c23)C1` [Example 92, 7-[(2E)-4-(dimethylamino)but-2-enoyl]-N-[1-(3-fluorobenzyl)-1H-indazol-5-yl]-5,6,7,8-tetrahydropyrido [4′,3′:4,5]thieno[2,3-d]pyrimidin-4-amine], the negative-log IC50 (pIC50) in the test on N87, with A431 cells and in the test with H1975 cells was > 6.70 throughout.

Turning to `CN(C)C/C=C/C(=O)N1CCc2c(sc3ncnc(Nc4ccc5c(ccn5Cc5ccccc5)c4)c23)C1` [Example 93, N-(1-benzyl-1H-indol-5-yl)-7-[(2E)-4-(dimethylamino)but-2-enoyl]-5,6,7,8-tetrahydropyrido [4′,3′:4,5]thieno[2,3-d]pyrimidin-4-amine], the negative-log IC50 (pIC50) in the test with N87 is > 6.70; in the test with A431 cells, 6.00 to 6.70; in the test with H1975 cells, > 6.70.

As for `CCN(CC)C/C=C/C(=O)N1CCc2c(sc3ncnc(Nc4ccc5c(ccn5Cc5ccccc5)c4)c23)C1` [Example 94, N-(1-benzyl-1H-indol-5-yl)-7-[(2E)-4-(diethylamino)but-2-enoyl]-5,6,7,8-tetrahydropyrido [4′,3′:4,5]thieno[2,3-d]pyrimidin-4-amine], the values for the pIC50 with N87, in the test on A431 cells and in the test on H1975 cells were > 6.70, 6.00 to 6.70 and 6.00 to 6.70, respectively.

As to `CCN(CC)C/C=C/C(=O)N1CCc2c(sc3ncnc(Nc4ccc5c(cnn5Cc5ccccc5)c4)c23)C1` [Example 95, N-(1-benzyl-1H-indazol-5-yl)-7-[(2E)-4-(diethylamino)but-2-enoyl]-5,6,7,8-tetrahydropyrido [4′,3′:4,5]thieno[2,3-d]pyrimidin-4-amine], the pIC50 in the test with N87 was > 6.70; in the test with A431 cells it was 6.00 to 6.70; in the test on H1975 cells, 6.00 to 6.70.

In the case of `O=C(/C=C/CN1CCCCC1)N1CCc2c(sc3ncnc(Nc4ccc5c(ccn5Cc5ccccc5)c4)c23)C1` [Example 96, N-(1-benzyl-1H-indol-5-yl)-7-[(2E)-4-piperidin-1-ylbut-2-enoyl]-5,6,7,8-tetrahydropyrido [4′,3′:4,5]thieno[2,3-d]pyrimidin-4-amine], the pIC50 in the test with N87 is > 6.70; with A431 cells, 5.00 to 6.00; in the test on H1975 cells, 6.00 to 6.70.

Consider `CN(C)C/C=C/C(=O)N1CCc2c(sc3ncnc(Nc4ccc5c(cnn5Cc5ccccc5)c4)c23)C1` [Example 97, N-(1-benzyl-1H-indazol-5-yl)-7-[(2E)-4-(dimethylamino)but-2-enoyl]-5,6,7,8-tetrahydropyrido [4′,3′:4,5]thieno[2,3-d]pyrimidin-4-amine], for which the negative logarithm of the IC50 (pIC50) is > 6.70 with N87, 6.00 to 6.70 with A431 cells and 6.00 to 6.70 with H1975 cells.

With `CN(C)C/C=C/C(=O)N1CCc2c(sc3ncnc(Nc4ccc5c(ccn5Cc5cccc(F)c5)c4)c23)C1` [Example 98, 7-[(2E)-4-(dimethylamino)but-2-enoyl]-N-[1-(3-fluorobenzyl)-1H-indol-5-yl]-5,6,7,8-tetrahydropyrido [4′,3′:4,5]thieno[2,3-d]pyrimidin-4-amine], the pIC50 is > 6.70 in the test on N87, 6.00 to 6.70 in the test with A431 cells and > 6.70 in the test with H1975 cells.

As to `CCN(CC)C/C=C/C(=O)N1CCc2c(sc3ncnc(Nc4ccc5c(cnn5Cc5cccc(F)c5)c4)c23)C1` [Example 99, 7-[(2E)-4-(diethylamino)but-2-enoyl]-N-[1-(3-fluorobenzyl)-1H-indazol-5-yl]5,6,7,8-tetrahydropyrido [4′,3′:4,5]thieno[2,3-d]pyrimidin-4-amine], the pIC50 in the test on N87 is > 6.70; with A431 cells it was 6.00 to 6.70; in the test with H1975 cells, 6.00 to 6.70.

`CCN(CC)C/C=C/C(=O)N1CCc2c(sc3ncnc(Nc4ccc5c(ccn5Cc5cccc(F)c5)c4)c23)C1` [Example 100, 7-[(2E)-4-(diethylamino)but-2-enoyl]-N-[1-(3-fluorobenzyl)-1H-indol-5-yl]-5,6,7,8-tetrahydropyrido [4′,3′:4,5]thieno[2,3-d]pyrimidin-4-amine]: the results for the pIC50 in the test with N87, with A431 cells and with H1975 cells were > 6.70, 6.00 to 6.70 and 6.00 to 6.70, respectively.

Take `O=C(/C=C/CN1CCCCC1)N1CCc2c(sc3ncnc(Nc4ccc5c(cnn5Cc5cccc(F)c5)c4)c23)C1` [Example 101]: the pIC50 in the test with N87 was > 6.70; with A431 cells, 6.00 to 6.70; with H1975 cells, 6.00 to 6.70.

Regarding `O=C(/C=C/CN1CCOCC1)N1CCc2c(sc3ncnc(Nc4ccc5c(cnn5Cc5cccc(F)c5)c4)c23)C1` [Example 102, N-[1-(3-fluorobenzyl)-1H-indazol-5-yl]-7-[(2E)-4-morpholin-4-ylbut-2-enoyl]-5,6,7,8-tetrahydropyrido [4′,3′:4,5]thieno[2,3-d]pyrimidin-4-amine], the pIC50 in the test with N87 is > 6.70; in the test on A431 cells, 6.00 to 6.70; with H1975 cells it was 5.00 to 6.00.

For the compound `O=C(/C=C/CN1CCOCC1)N1CCc2c(sc3ncnc(Nc4ccc5c(cnn5Cc5ccccc5)c4)c23)C1` [Example 103, N-(1-benzyl-1H-indazol-5-yl)-7-[(2E)-4-morpholin-4-ylbut-2-enoyl]-5,6,7,8-tetrahydropyrido [4′,3′:4,5]thieno[2,3-d]pyrimidin-4-amine], the pIC50 was > 6.70 in the test with N87, 6.00 to 6.70 in the test on A431 cells and 5.00 to 6.00 with H1975 cells.

As to `O=C(/C=C/CN1CCCCC1)N1CCc2c(sc3ncnc(Nc4ccc5c(cnn5Cc5ccccc5)c4)c23)C1` [Example 104, N-(1-benzyl-1H-indazol-5-yl)-7-[(2E)-4-piperidin-1-ylbut-2-enoyl]-5,6,7,8-tetrahydropyrido [4′,3′:4,5]thieno[2,3-d]pyrimidin-4-amine], the pIC50 with N87 was > 6.70; with A431 cells, 6.00 to 6.70; in the test with H1975 cells, 6.00 to 6.70.

On to `O=C(/C=C/CN1CCOCC1)N1CCc2c(sc3ncnc(Nc4ccc5c(ccn5Cc5ccccc5)c4)c23)C1` [Example 105, N-(1-benzyl-1H-indol-5-yl)-7-[(2E)-4-morpholin-4-ylbut-2-enoyl]-5,6,7,8-tetrahydropyrido [4′,3′:4,5]thieno[2,3-d]pyrimidin-4-amine], for which the negative-log IC50 (pIC50) in the test with N87 is > 6.70; in the test on A431 cells, > 6.70; in the test on H1975 cells, 6.00 to 6.70.

Take `O=C(/C=C/CN1CCCCC1)N1CCc2c(sc3ncnc(Nc4ccc5c(ccn5Cc5cccc(F)c5)c4)c23)C1` [Example 106, N-[1-(3-fluorobenzyl)-1H-indol-5-yl)-7-[(2E)-4-piperidin-1-ylbut-2-enoyl]-5,6,7,8-tetrahydropyrido [4′,3′:4,5]thieno[2,3-d]pyrimidin-4-amine]: the values for the pIC50 with N87, in the test with A431 cells and in the test on H1975 cells were > 6.70, > 6.70 and 6.00 to 6.70, respectively.

`CC(C)N(C)C/C=C/C(=O)N1CCc2c(sc3ncnc(Nc4ccc5c(cnn5Cc5ccccc5)c4)c23)C1` [Example 107, N-(1-benzyl-1H-indazol-5-yl)-7-{(2E)-4-[isopropyl(methyl)amino]but-2-enoyl}-5,6,7,8-tetrahydropyrido [4′,3′:4,5]thieno[2,3-d]pyrimidin-4-amine]: the pIC50 with N87, with A431 cells and with H1975 cells was > 6.70 throughout.

Take `O=C(/C=C/CN1CCOCC1)N1CCc2c(sc3ncnc(Nc4ccc5c(ccn5Cc5cccc(F)c5)c4)c23)C1` [Example 108, N-[1-(3-fluorobenzyl)-1H-indol-5-yl]-7-[(2E)-4-morpholin-4-ylbut-2-enoyl]-5,6,7,8-tetrahydropyrido [4′,3′:4,5]thieno[2,3-d]pyrimidin-4-amine]: the pIC50 is > 6.70 in the test on N87, > 6.70 with A431 cells and 6.00 to 6.70 in the test with H1975 cells.
